How the values were obtained:
barnyard grass [1] = assay: Test Example 5: herbicidal effect by foliage application, plastic box (Table 20, symbol H); assay type: in vivo, barnyard grass (Echinochloa crus-galli); details: foliage application, 320 g/ha, evaluated three weeks after application
In short: (§1)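 Post-emergence foliar test in sterilized diluvial soil. Compound applied as water-diluted emulsion at a predetermined rate to 14-day-old plants; evaluation at three weeks.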

barnyard grass [2] = assay: Test Example 4: herbicidal effect by soil treatment (Table 19, symbol H); assay type: in vivo, barnyard grass (Echinochloa crus-galli); details: amount of applied herbicide 320 g/ha
In short: (§2)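 Scoring uses the grading scale of an earlier test, three weeks post-application. Treatment consists of spraying a diluted emulsion formulation across the surface of sterilized diluvial soil in which seeds are buried near 1.5 cm deep; boxes are kept in a greenhouse between 25° C. and 30° C.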

green foxtail [3] = assay: Test Example 5: herbicidal effect by foliage application, plastic box (Table 20, symbol G); assay type: in vivo, green foxtail (Setaria viridis); details: foliage application, 320 g/ha, evaluated three weeks after application
In short: as §1

lambsquarters [4] = assay: Test Example 4: herbicidal effect by soil treatment (Table 19, symbol O); assay type: in vivo, lambsquarters (Chenopodium album); details: amount of applied herbicide 320 g/ha
In short: as §2

lambsquarters [5] = assay: Test Example 5: herbicidal effect by foliage application, plastic box (Table 20, symbol O); assay type: in vivo, lambsquarters (Chenopodium album); details: foliage application, 320 g/ha, evaluated three weeks after application
In short: as §1

wild oat [6] = assay: Test Example 4: herbicidal effect by soil treatment (Table 19, symbol I); assay type: in vivo, wild oat (Avena fatua); details: amount of applied herbicide 320 g/ha
In short: as §2

rice flat sedge = assay: Test Example 3: herbicidal effect by foliage application, Wagner pot (Table 18, symbol E); assay type: in vivo, rice flat sedge (Cyperus iria); details: amount of applied herbicide 320 g/ha
In short: (§3)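 Plants were sown in alluvial soil held under 0.1–0.5 cm standing water and grown 14 days in a greenhouse at 25–30 °C. An emulsifiable formulation, water-diluted to the set dose, was then sprayed onto the foliage, and effects were scored three weeks later using previously defined criteria.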

persian speedwell = assay: Test Example 5: herbicidal effect by foliage application, plastic box (Table 20, symbol R); assay type: in vivo, Persian speedwell (Veronica persica); details: foliage application, 320 g/ha, evaluated three weeks after application
In short: as §1

Chinese sprangletop = assay: Test Example 3: herbicidal effect by foliage application, Wagner pot (Table 18, symbol D); assay type: in vivo, chinese sprangletop (Leptochloa chinensis); details: amount of applied herbicide 320 g/ha
In short: as §3

windgrass [7] = assay: Test Example 4: herbicidal effect by soil treatment (Table 19, symbol L); assay type: in vivo, windgrass (Apera spica-venti); details: amount of applied herbicide 320 g/ha
Excerpt: (§4) [Test Example 4] Herbicidal Effect Test by Soil Treatment
(§5) Sterilized diluvial soil was placed in a plastic box having a length of 21 cm, a width of 13 cm, and a depth of 7 cm. The seeds of each of southern crabgrass, green foxtail, barnyard grass, wild oat, blackgrass, Italian ryegrass, windgrass, velvetleaf, redroot pigweed, lambsquarters, chickweed, false cleavers, persian speedwell, corn, soybean, rice, wheat, beet, and rapeseed were sowed in a spot-like manner and covered with the soil having a thickness of about 1.5 cm. Subsequently, the emulsion agent of the compound of the present invention prepared according to Formulation Example 2 was diluted with water so as to achieve a predetermined herbicide amount, and the diluted emulsion agent was uniformly applied to the surface of the soil with a small-sized spray. The plastic box was placed in a greenhouse at 25° C. to 30° C. for growth of the plants. Three weeks after the herbicide application, the effect of the herbicide on each plant was evaluated according to the criteria of Test Example 1.

blackgrass [8] = assay: Test Example 5: herbicidal effect by foliage application, plastic box (Table 20, symbol J); assay type: in vivo, blackgrass (Alopecurus myosuroides); details: foliage application, 320 g/ha, evaluated three weeks after application
In short: as §1

barnyard grass [9] = assay: Test Example 3: herbicidal effect by foliage application, Wagner pot (Table 18, symbol H); assay type: in vivo, barnyard grass (Echinochloa crus-galli); details: amount of applied herbicide 320 g/ha
In short: as §3

velvetleaf [10] = assay: Test Example 4: herbicidal effect by soil treatment (Table 19, symbol M); assay type: in vivo, velvetleaf (Abutilon theophrasti); details: amount of applied herbicide 320 g/ha
In short: as §2

redroot pigweed [11] = assay: Test Example 4: herbicidal effect by soil treatment (Table 19, symbol N); assay type: in vivo, redroot pigweed (Amaranthus retroflexus); details: amount of applied herbicide 320 g/ha
In short: as §2

southern crabgrass [12] = assay: Test Example 5: herbicidal effect by foliage application, plastic box (Table 20, symbol F); assay type: in vivo, southern crabgrass (Digitaria ciliaris); details: foliage application, 320 g/ha, evaluated three weeks after application
In short: as §1

chickweed [13] = assay: Test Example 4: herbicidal effect by soil treatment (Table 19, symbol P); assay type: in vivo, common chickweed (Stellaria media); details: amount of applied herbicide 320 g/ha
In short: as §2

Italian ryegrass [14] = assay: Test Example 4: herbicidal effect by soil treatment (Table 19, symbol K); assay type: in vivo, Italian ryegrass (Lolium multiflorum); details: amount of applied herbicide 320 g/ha
Excerpt: as §4, §5

blackgrass [15] = assay: Test Example 4: herbicidal effect by soil treatment (Table 19, symbol J); assay type: in vivo, blackgrass (Alopecurus myosuroides); details: amount of applied herbicide 320 g/ha
In short: as §2

chickweed [16] = assay: Test Example 5: herbicidal effect by foliage application, plastic box (Table 20, symbol P); assay type: in vivo, common chickweed (Stellaria media); details: foliage application, 320 g/ha, evaluated three weeks after application
In short: as §1

green foxtail [17] = assay: Test Example 4: herbicidal effect by soil treatment (Table 19, symbol G); assay type: in vivo, green foxtail (Setaria viridis); details: amount of applied herbicide 320 g/ha
In short: as §2

velvetleaf [18] = assay: Test Example 5: herbicidal effect by foliage application, plastic box (Table 20, symbol M); assay type: in vivo, velvetleaf (Abutilon theophrasti); details: foliage application, 320 g/ha, evaluated three weeks after application
In short: as §1

Italian ryegrass [19] = assay: Test Example 5: herbicidal effect by foliage application, plastic box (Table 20, symbol K); assay type: in vivo, Italian ryegrass (Lolium multiflorum); details: foliage application, 320 g/ha, evaluated three weeks after application
In short: as §1

redroot pigweed [20] = assay: Test Example 5: herbicidal effect by foliage application, plastic box (Table 20, symbol N); assay type: in vivo, redroot pigweed (Amaranthus retroflexus); details: foliage application, 320 g/ha, evaluated three weeks after application
In short: as §1

wild oat [21] = assay: Test Example 5: herbicidal effect by foliage application, plastic box (Table 20, symbol I); assay type: in vivo, wild oat (Avena fatua); details: foliage application, 320 g/ha, evaluated three weeks after application
In short: as §1

windgrass [22] = assay: Test Example 5: herbicidal effect by foliage application, plastic box (Table 20, symbol L); assay type: in vivo, windgrass (Apera spica-venti); details: foliage application, 320 g/ha, evaluated three weeks after application
In short: as §1

southern crabgrass [23] = assay: Test Example 4: herbicidal effect by soil treatment (Table 19, symbol F); assay type: in vivo, southern crabgrass (Digitaria ciliaris); details: amount of applied herbicide 320 g/ha
In short: as §2

Structure (SMILES): COc1ccc(-c2sc3ccc(Cl)cc3c2-c2c(O)c(C)nn(C)c2=O)cc1C [2-119]
- herbicidal effect on H: barnyard grass (barnyard grass [1]): 1 (Herbicidal rate of 5% or more and less than 20%)
- H: barnyard grass, herbicidal effect rating (barnyard grass [2]): 0 (Herbicidal rate of 5% or less (almost no effect))
- herbicidal effect on G: green foxtail (green foxtail [3]): 0 (Herbicidal rate of 5% or less (almost no effect))
- O: lambsquarters, herbicidal effect rating (lambsquarters [4]): 2 (Herbicidal rate of 20% or more and less than 40%)
- herbicidal effect on O: lambsquarters (lambsquarters [5]): 3 (Herbicidal rate of 40% or more and less than 70%)
- I: wild oat, herbicidal effect rating (wild oat [6]): 0 (Herbicidal rate of 5% or less (almost no effect))
- herbicidal effect on E: rice flat sedge (rice flat sedge): 3 (Herbicidal rate of 40% or more and less than 70%)
- herbicidal effect on R: persian speedwell (persian speedwell): 3 (Herbicidal rate of 40% or more and less than 70%)
- herbicidal effect on D: Chinese sprangletop (Chinese sprangletop): 2 (Herbicidal rate of 20% or more and less than 40%)
- L: windgrass, herbicidal effect rating (windgrass [7]): 0 (Herbicidal rate of 5% or less (almost no effect))
- herbicidal effect on J: blackgrass (blackgrass [8]): 3 (Herbicidal rate of 40% or more and less than 70%)
- herbicidal effect on H: barnyard grass (barnyard grass [9]): 3 (Herbicidal rate of 40% or more and less than 70%)
- M: velvetleaf, herbicidal effect rating (velvetleaf [10]): 0 (Herbicidal rate of 5% or less (almost no effect))
- N: redroot pigweed, herbicidal effect rating (redroot pigweed [11]): 0 (Herbicidal rate of 5% or less (almost no effect))
- herbicidal effect on F: southern crabgrass (southern crabgrass [12]): 0 (Herbicidal rate of 5% or less (almost no effect))
- P: chickweed, herbicidal effect rating (chickweed [13]): 0 (Herbicidal rate of 5% or less (almost no effect))
- K: Italian ryegrass, herbicidal effect rating (Italian ryegrass [14]): 0 (Herbicidal rate of 5% or less (almost no effect))
- J: blackgrass, herbicidal effect rating (blackgrass [15]): 0 (Herbicidal rate of 5% or less (almost no effect))
- herbicidal effect on P: chickweed (chickweed [16]): 1 (Herbicidal rate of 5% or more and less than 20%)
- G: green foxtail, herbicidal effect rating (green foxtail [17]): 0 (Herbicidal rate of 5% or less (almost no effect))
- herbicidal effect on M: velvetleaf (velvetleaf [18]): 3 (Herbicidal rate of 40% or more and less than 70%)
- herbicidal effect on K: Italian ryegrass (Italian ryegrass [19]): 0 (Herbicidal rate of 5% or less (almost no effect))
- herbicidal effect on N: redroot pigweed (redroot pigweed [20]): 0 (Herbicidal rate of 5% or less (almost no effect))
- herbicidal effect on I: wild oat (wild oat [21]): 0 (Herbicidal rate of 5% or less (almost no effect))
- herbicidal effect on L: windgrass (windgrass [22]): 0 (Herbicidal rate of 5% or less (almost no effect))
- F: southern crabgrass, herbicidal effect rating (southern crabgrass [23]): 0 (Herbicidal rate of 5% or less (almost no effect))
